Laboratory results from patent publication US4847286A, “Cromoglycic acid derivatives, method of production thereof and pharmaceutical composition” (priority 1985, dated 1989).
Counter-ions that a name gives are not always drawn.

Columns and labels:
[1] = Acute toxicity test, oral route; conditions: mouse, in vivo, aqueous solution, groups of three ICR-strain male mice
Protocol: The cromoglycic acid derivatives produced in Examples 1, 4, 7, 11 and 12 were administered, each in the form of an aqueous solution, to groups of three ICR-strain male mice by the oral route.

[2] = rabbit, in vivo, po, 5 mg/kg, 360 min
[3] = background statement; cited from earlier work
in vivo = conditions: rabbit, po, 5 mg/kg

| dose excreted at 6 h (in vivo) | SMILES | LD50 [1] | 0-6 Hr urinary recovery [2] | absorption in the digestive tract [3] |
| --- | --- | --- | --- | --- |
| – | CCOC(=O)c1cc(=O)c2c(OCC(COc3cccc4oc(C(=O)OCC)cc(=O)c34)OC(=O)[C@H](C)N)cccc2o1 [Example 4, diethyl L-alanylcromoglycate hydrochloride] | > 1000 mg/kg | 20.2% | – |
| – | CCOC(=O)c1cc(=O)c2c(OCC(COc3cccc4oc(C(=O)OCC)cc(=O)c34)OC(=O)CNC(=O)[C@H](C)N)cccc2o1 [Example 7, diethyl N-(L-alanyl)glycylcromoglycate hydrochloride] | > 1000 mg/kg | 21.4% | – |
| 3.5% | O=C(O)c1cc(=O)c2c(OCC(O)COc3cccc4oc(C(=O)O)cc(=O)c34)cccc2o1 [Cromoglycic acid] | – | – | cannot be absorbed in the digestive tract |
| – | CCOC(=O)c1cc(=O)c2c(OCC(COc3cccc4oc(C(=O)OCC)cc(=O)c34)OC(=O)[C@@H](N)CCCCN)cccc2o1 [Example 1, diethyl L-lysylcromoglycate dihydrochloride] | > 1000 mg/kg | 32.6% | – |
| – | CCOCCOC(=O)c1cc(=O)c2c(OCC(COc3cccc4oc(C(=O)OCCOCC)cc(=O)c34)OC(=O)[C@H](C)N)cccc2o1 [Example 12, di(2-ethoxyethyl) L-alanylcromoglycate hydrochloride] | > 1000 mg/kg | 21.8% | – |
| – | CCOCCOC(=O)c1cc(=O)c2c(OCC(COc3cccc4oc(C(=O)OCCOCC)cc(=O)c34)OC(=O)[C@@H](N)CCCCN)cccc2o1 [Example 11, di(2-ethoxyethyl) L-lysylcromoglycate dihydrochloride] | > 1000 mg/kg | 25.4% | – |
